# Measurements taken from PMC5988656, “Phase I studies of AZD1208, a proviral integration Moloney virus kinase inhibitor in solid and haematological cancers” (British Journal of Cancer, 2018).
# Tests used:
# AML blasts = assay: RPPA protein profiling in AML blasts during therapy; type: in vivo, human; settings: samples from six patients
# Description: In the AML study, a protein profiling analysis was carried out on primary blasts obtained from peripheral blood of patients (n = 6) before and during therapy with AZD1208. Due to time-sensitive aspects of the analysis, only patients from the MD Anderson Cancer Center (MDACC, Houston, TX, USA) were eligible. Whole blood was collected in heparinised tubes. Leukaemia cells were then isolated using Ficoll–Hypaque (specific gravity, 1.086; Life Technologies, Grand Island, NY, USA) density gradient separation, as previously described.[15] Cell number and mean cell volume were determined using a Coulter Channelyzer (Coulter Electronics, Hialeah, FL, USA).
# AML blasts isolated from patients during therapy with AZD1208 were harvested and submitted for reverse phase protein array (RPPA) analysis to evaluate protein level changes across a set of 171 antibodies,[16] graphed using GraphPad Prism software (GraphPad Software, Inc., San Diego, CA, USA).
# relapsed/refractory AML = assay: AML study: antileukaemic activity (IWG response criteria); type: in vivo, human
# From the text: The antileukaemic activity in AML was according to the International Working Group (IWG) response criteria for AML.[17] Response criteria were modified such that an M-1 marrow was defined as 1% to ≤5% and a partial response as >5% to 25%.[18]
# [1] = Investigator assessed, 120 mg, n=4
# [2] = Investigator assessed, 240 mg, n=6
# [3] = Investigator assessed, 480 mg, n=6
# [4] = Investigator assessed, 700 mg, n=7
# [5] = Investigator assessed, 900 mg, n=9
# [6] = Modified Cheson criteria, 120 mg, n=4
# [7] = Modified Cheson criteria, 240 mg, n=6
# [8] = Modified Cheson criteria, 480 mg, n=6
# [9] = Modified Cheson criteria, 700 mg, n=7
# [10] = Modified Cheson criteria, 900 mg, n=9
structure (smiles),measurement,setting,value
N[C@@H]1CCCN(c2c(/C=C3\SC(=O)NC3=O)cccc2-c2ccccc2)C1 [AZD1208],Patients with reductions in 4E-BP1 S65 (RPPA),AML blasts,three
same,Patients with reductions in BAD S112 (RPPA),AML blasts,four
same,"Discontinued study treatment due to a lack of therapeutic response, patients",relapsed/refractory AML; 32 eligible patients,59.4%
same,Best response: CR,relapsed/refractory AML; [1],0 n (%)
same,Best response: CRi,relapsed/refractory AML; [1],0 n (%)
same,Best response: Morphologic leukaemia free,relapsed/refractory AML; [1],0 n (%)
same,Best response: Non-response,relapsed/refractory AML; [1],3 (75.0) n (%)
same,Best response: Partial remission,relapsed/refractory AML; [1],0 n (%)
same,Best response: CR,relapsed/refractory AML; [2],0 n (%)
same,Best response: CRi,relapsed/refractory AML; [2],0 n (%)
same,Best response: Morphologic leukaemia free,relapsed/refractory AML; [2],0 n (%)
same,Best response: Non-response,relapsed/refractory AML; [2],3 (50.0) n (%)
same,Best response: Partial remission,relapsed/refractory AML; [2],0 n (%)
same,Best response: CR,relapsed/refractory AML; [3],0 n (%)
same,Best response: CRi,relapsed/refractory AML; [3],0 n (%)
same,Best response: Morphologic leukaemia free,relapsed/refractory AML; [3],0 n (%)
same,Best response: Non-response,relapsed/refractory AML; [3],3 (50.0) n (%)
same,Best response: Partial remission,relapsed/refractory AML; [3],0 n (%)
same,Best response: CR,relapsed/refractory AML; [4],0 n (%)
same,Best response: CRi,relapsed/refractory AML; [4],0 n (%)
same,Best response: Morphologic leukaemia free,relapsed/refractory AML; [4],0 n (%)
same,Best response: Non-response,relapsed/refractory AML; [4],1 (14.3) n (%)
same,Best response: Partial remission,relapsed/refractory AML; [4],0 n (%)
same,Best response: CR,relapsed/refractory AML; [5],0 n (%)
same,Best response: CRi,relapsed/refractory AML; [5],0 n (%)
same,Best response: Morphologic leukaemia free,relapsed/refractory AML; [5],0 n (%)
same,Best response: Non-response,relapsed/refractory AML; [5],2 (22.2) n (%)
same,Best response: Partial remission,relapsed/refractory AML; [5],0 n (%)
same,Best response: CR,relapsed/refractory AML; [6],0 n (%)
same,Best response: CRi,relapsed/refractory AML; [6],0 n (%)
same,Best response: Morphologic leukaemia free,relapsed/refractory AML; [6],0 n (%)
same,Best response: Non-response,relapsed/refractory AML; [6],4 (100) n (%)
same,Best response: Partial remission,relapsed/refractory AML; [6],0 n (%)
same,Best response: CR,relapsed/refractory AML; [7],0 n (%)
same,Best response: CRi,relapsed/refractory AML; [7],0 n (%)
same,Best response: Morphologic leukaemia free,relapsed/refractory AML; [7],0 n (%)
same,Best response: Non-response,relapsed/refractory AML; [7],6 (100) n (%)
same,Best response: Partial remission,relapsed/refractory AML; [7],0 n (%)
same,Best response: CR,relapsed/refractory AML; [8],0 n (%)
same,Best response: CRi,relapsed/refractory AML; [8],0 n (%)
same,Best response: Morphologic leukaemia free,relapsed/refractory AML; [8],0 n (%)
same,Best response: Non-response,relapsed/refractory AML; [8],6 (100) n (%)
same,Best response: Partial remission,relapsed/refractory AML; [8],0 n (%)
same,Best response: CR,relapsed/refractory AML; [9],0 n (%)
same,Best response: CRi,relapsed/refractory AML; [9],0 n (%)
same,Best response: Morphologic leukaemia free,relapsed/refractory AML; [9],0 n (%)
same,Best response: Non-response,relapsed/refractory AML; [9],7 (100) n (%)
same,Best response: Partial remission,relapsed/refractory AML; [9],0 n (%)
same,Best response: CR,relapsed/refractory AML; [10],0 n (%)
same,Best response: CRi,relapsed/refractory AML; [10],0 n (%)
same,Best response: Morphologic leukaemia free,relapsed/refractory AML; [10],0 n (%)
same,Best response: Non-response,relapsed/refractory AML; [10],9 (100) n (%)
same,Best response: Partial remission,relapsed/refractory AML; [10],0 n (%)
same,Clinical responses according to IWG criteria,relapsed/refractory AML; all doses,no clinical responses
